Values after ≈ are worked out from the molar mass of the structure shown.
Tests used:
Type in all cases: physicochemical
[1] = Solubilization of latanoprost by a library of cyclodextrin derivatives (Example 1); conditions: ultra-pure water, room temperature
Method: A library of unsubstituted and monosubstituted cyclodextrins was screened to identify those cyclodextrin derivatives that have the highest capacity for solubilization of latanoprost. Complexation was carried out in ultra-pure water at a molar ratio of cyclodextrin derivative to latanoprost of 5:1, corresponding to concentrations of 115.58 mM and 23.12 mM for cyclodextrin derivative and latanoprost, respectively. Because of the known sensitivity of latanoprost to light, high temperature and oxidation, experiments were conducted in the dark and under a nitrogen atmosphere at room temperature. […] Non-covalent complexes formed contained the cyclodextrin derivative and latanoprost at a molar ratio of 5:1.

[2] = Solubility of prostaglandin derivatives in 50 mM cyclodextrin derivative or water (Example 2)
Text: Solubility of Latanoprost, Bimatoprost And Travoprost in 50 Mm Mono-6-desoxy-6-diaminopropyl-β-cyclodextrin, Mono-6-desoxy-6-aminopropanol-β-cyclodextrin or Water

[3] = Time to reach maximal solubility of latanoprost in cyclodextrin solution (Example 3); conditions: 115 mM mono-6-desoxy-6-diaminopropyl-β-cyclodextrin, room temperature, dark, stirred
Method: The minimal time period required for reaching maximal solubility of the guest molecule, i.e., latanoprost, in a solution containing 115 mM mono-6-desoxy-6-diaminopropyl-β-cyclodextrin was determined. Subsequent to addition of latanoprost, the resulting suspension was ultrasonicated for 5 min and then stirred magnetically at room temperature and in the dark for a period of 48 hours. Aliquots were removed at 0, 1, 3, 6, 12, 24 and 48 hours. Each aliquot was filtered through a 0.45 um PVDF (Millipore/Whatman) membrane, and the filtrate was diluted for quantitative analysis of latanoprost by HPLC. […] Subsequent experiments were conducted after 24 hours of equilibration.

[4] = 30-day stability of latanoprost complexed with mono-6-desoxy-6-diaminopropyl-β-cyclodextrin, HPLC-ELSD (Example 6, Table 4); conditions: for Relative area of Latanoprost (%) after 30 days: ELSD
Method: Latanoprost-mono-6-desoxy-6-diaminopropyl-β-cyclodextrin complex was prepared essentially as described under the previous example. Complex was dissolved in water to yield solutions (pH 6.7) containing 15 mg/ml and 7.5 mg/ml of latanoprost, respectively, or in a standard, isotonic phosphate buffer (pH 6.7) at 50 μg/ml. A control solution of 50 μg/ml latanoprost in phosphate buffer was also prepared. One-milliliter amounts of these solutions were transferred to pre-scored hermetically thermo-sealed ampoules, and the sealed ampoules were incubated at room temperature, at 37° C. or at 60° C., in the presence or absence of natural light, for a total of 30 days. Aliquots were removed periodically and were analyzed by HPLC using either a UV diode array detector (at 210 nm) or an evaporative light scattering detector (ELSD). […] Such instability had been observed previously. Morgan (2001) J. Glaucoma 10, 401-405; Yusuke Sakai (2005) Int. J. Pharmaceutics 305, 176-179. International patent publication WO 2004/024164.

[5] = 30-day stability of latanoprost complexed with mono-6-desoxy-6-aminopropanol-β-cyclodextrin, quantitative HPLC (Example 6, Table 5); conditions: for Degradation products of latanoprost at 30 days (% of sum of drug and deg. prod.): uncomplexed aqueous solution
Method: Analogous experiments were carried out to estimate the stability of latanoprost-mono-6-desoxy-6-aminopropanol-β-cyclodextrin complex.

[6] = 50 mM mono-6-desoxy-6-aminopropanol-β-cyclodextrin solution, aqueous with cosolvent or surfactant or cyclodextrin, read-out: Solubility In 50 mM Mono-6-desoxy-6-aminopropanol-β-cyclodextrin
[7] = 50 mM mono-6-desoxy-6-diaminopropyl-β-cyclodextrin solution, aqueous with cosolvent or surfactant or cyclodextrin, read-out: Solubility In 50 mM Mono-6-desoxy-6-diaminopropyl-β-cyclodextrin
[8] = water, read-out: Solubility In Water
[9] = dark, nitrogen, cyclodextrin derivative 115.58 mM : latanoprost 23.12 mM (5:1), 'No addition' = latanoprost alone (Exp. S0)

Compound: CC(C)OC(=O)CCC/C=C\C[C@@H]1C(CC[C@@H](O)CCc2ccccc2)[C@H](O)C[C@@H]1O (stereo partly drawn) [Latanoprost, 13,14-dihydro-17-phenyl-18,19,20-trinor-PGF2α-isopropylester]
- solubility ([1]; dark, nitrogen, cyclodextrin derivative 115.58 mM : latanoprost 23.12 mM (5:1), 'No addition' = latanoprost alone (Exp. S0), read-out: Maximal Solubility of Latanoprost): 45 µg/mL (≈ 0.104 mM)
- solubility [2, 6]: 5720 ± 80 µg/mL (≈ 13.2 mM)
- solubility [2, 7]: 5900 ± 60 µg/mL (≈ 13.6 mM)
- solubility [2, 8]: 89 µg/mL (≈ 0.206 mM)
- time at which solubility equilibrium was reached [3]: about 24 hours
- Relative area of Latanoprost (%) after 30 days ([4]; 25 °C, Dark): 85.9%
- Relative area of Latanoprost (%) after 30 days ([4]; 25 °C, Light, intact latanoprost as % of sum of latanoprost and degradation product): 76.9%
- Relative area of Latanoprost (%) after 30 days ([4]; 37 °C, Dark): 100%
- Relative area of Latanoprost (%) after 30 days ([4]; 37 °C, Light): 99.8%
- Relative area of Latanoprost (%) after 30 days ([4]; 60 °C, Dark): 98.5%
- Relative area of Latanoprost (%) after 30 days ([4]; 60 °C, Light): 94.7%
- stability over 30 days (in words) ([4]; room temperature, 37° C. or 60° C., light or dark, 30 days): exhibited instability, in particular at 25 °C
- degradation at 25° C. (in words) ([5]; 25° C., 30 days): abundant degradation
- Degradation products of latanoprost at 30 days (% of sum of drug and deg. prod.) ([5]; 25 °C, Dark): 93.4%
- Degradation products of latanoprost at 30 days (% of sum of drug and deg. prod.) ([5]; 25 °C, Light): 77.9%
- Degradation products of latanoprost at 30 days (% of sum of drug and deg. prod.) ([5]; 37 °C, Dark): 0%
- Degradation products of latanoprost at 30 days (% of sum of drug and deg. prod.) ([5]; 37 °C, Light): 0%
- Degradation products of latanoprost at 30 days (% of sum of drug and deg. prod.) ([5]; 60 °C, Dark): 0%
- Degradation products of latanoprost at 30 days (% of sum of drug and deg. prod.) ([5]; 60 °C, Light): 0%
- latanoprost in aqueous solution at 30 days ([5]; uncomplexed, 25 °C, Dark): 0.002 +/− 0.001 g/lt
- latanoprost in aqueous solution at 30 days ([5]; uncomplexed, 25 °C, Light): 0.006 +/− 0.004 g/lt
- latanoprost in aqueous solution at 30 days ([5]; uncomplexed, 37 °C, Dark): 0.051 +/− 0.001 g/lt
- latanoprost in aqueous solution at 30 days ([5]; uncomplexed, 37 °C, Light): 0.061 +/− 0.003 g/lt
- latanoprost in aqueous solution at 30 days ([5]; uncomplexed, 60 °C, Dark): 0.058 +/− 0.002 g/lt
- latanoprost in aqueous solution at 30 days ([5]; uncomplexed, 60 °C, Light): 0.043 +/− 0.007 g/lt
- latanoprost in aqueous solution at day 0 ([5]; uncomplexed, phosphate-citrate buffer pH 5.0): 0.063 +/− 0.003 g/lt

Compound: 6^1-(3-amino-propylamino)-6^1-deoxycyclomaltoheptaose
- Mass Ratio Cyclodextrin:Latanoprost in Complex [1]: 14
- Molar Ratio Cyclodextrin:Latanoprost in Complex [1]: 5
- Maximal Solubility of Latanoprost [1, 9]: 9570 µg/mL

Compound: 3^1,6^1-anhydrocyclomaltoheptaose [Monoanhydro-β-cyclodextrin]
- Mass Ratio Cyclodextrin:Latanoprost in Complex [1]: 65
- Molar Ratio Cyclodextrin:Latanoprost in Complex [1]: 25
- Maximal Solubility of Latanoprost [1, 9]: 2000 µg/mL

Compound: 6^1-(methylthioureido-6^1-deoxycyclomaltoheptaose
- Mass Ratio Cyclodextrin:Latanoprost in Complex [1]: 106
- Molar Ratio Cyclodextrin:Latanoprost in Complex [1]: 38
- Maximal Solubility of Latanoprost [1, 9]: 1300 µg/mL

Compound: CCNC(=O)CCC/C=C\C[C@@H]1[C@@H](/C=C/[C@@H](O)CCc2ccccc2)[C@H](O)C[C@@H]1O [Bimatoprost, 17-phenyl-18,19,20-trinor-PGF2α-ethylamide]
- solubility [2, 6]: 10770 ± 50 µg/mL (≈ 25.9 mM)
- solubility [2, 7]: 10700 ± 670 µg/mL (≈ 25.7 mM)
- solubility [2, 8]: 3020 µg/mL (≈ 7.26 mM)

Compound: 6^1-(3-hydroxy-propylamino)-6^1-deoxycyclomaltoheptaose
- Mass Ratio Cyclodextrin:Latanoprost in Complex [1]: 14
- Molar Ratio Cyclodextrin:Latanoprost in Complex [1]: 5
- Maximal Solubility of Latanoprost [1, 9]: 10200 µg/mL

Compound: OC[C@H]1O[C@@H]2O[C@H]3[C@H](O)[C@@H](O)[C@@H](O[C@H]4[C@H](O)[C@@H](O)[C@@H](O[C@H]5[C@H](O)[C@@H](O)[C@@H](O[C@H]6[C@H](O)[C@@H](O)[C@@H](O[C@H]7[C@H](O)[C@@H](O)[C@@H](O[C@H]8[C@H](O)[C@@H](O)[C@@H](O[C@H]1[C@H](O)[C@H]2O)O[C@@H]8CO)O[C@@H]7CO)O[C@@H]6CO)O[C@@H]5CO)O[C@@H]4CO)O[C@@H]3CO [β-Cyclodextrin, β-cyclomaltoheptaose]
- Mass Ratio Cyclodextrin:Latanoprost in Complex [1]: 59
- Maximal Solubility of Latanoprost [1, 9]: 255 µg/mL

Compound: CC(C)OC(=O)CCC/C=C\C[C@@H]1[C@@H](/C=C/[C@@H](O)COc2cccc(C(F)(F)F)c2)[C@H](O)C[C@@H]1O [Travoprost, 16-(3-trifluoromethylphenoxy)-17,18,19,20-tetranor-PGF2α-isopropylester]
- solubility [2, 6]: 4950 ± 20 µg/mL (≈ 9.89 mM)
- solubility [2, 7]: 4940 ± 130 µg/mL (≈ 9.87 mM)
- solubility [2, 8]: 32 µg/mL (≈ 0.0639 mM)
